The NIST ThermoML archive (doi:10.1021/je900478c)

Assay: xn = mol fraction of the nth substance listed
Conditions: 101 kPa, Liquid; for viscosity: Capillary tube (Ostwald / Ubbelohde) method

CCCCCCOCCOCCO [2-(2-hexyloxyethoxy)ethanol] + O
mass density [kg/m3]
Conditions	283.15 K	288.15 K	293.15 K	303.15 K	313.15 K
x1 = 0.0005	999.68	999.08	998.19	995.64	992.26
x1 = 0.00075	999.67	999.06	998.17	995.59	992.23
x1 = 0.001	999.66	999.07	998.17	995.58	992.18
x1 = 0.00118	999.7	999.09	998.17	995.57	992.11
x1 = 0.00135	999.76	999.14	998.2	995.58	992.03
x1 = 0.0015	999.84	999.17	998.16	995.51	991.94
x1 = 0.00164	999.86	999.18	998.09	–	–
x1 = 0.00196	999.87	999.15	–	–	–
x1 = 0.00225	999.88	999.08	–	–	–
x1 = 0.01501	995.9	–	–	–	–
x1 = 0.01996	994.71	–	–	–	–
x1 = 0.02493	993.53	–	–	–	–
x1 = 0.03004	992.45	–	–	–	–
x1 = 0.03536	991.13	–	–	–	–
x1 = 0.03996	990.1	–	–	–	–
x1 = 0.04496	989.11	–	–	–	–
x1 = 0.0501	988.12	985.54	–	–	–
x1 = 0.05911	986.43	983.76	–	–	–
x1 = 0.06985	984.69	982.01	979.28	–	–
x1 = 0.07977	983.2	980.24	977.23	–	–
x1 = 0.08835	982.02	978.92	975.77	–	–
x1 = 0.09988	980.51	977.4	973.98	–	–
x1 = 0.1332	976.63	973.14	969.58	962.38	–
x1 = 0.2029	970.18	966.49	962.68	955.04	947.26
x1 = 0.2856	964.36	960.42	956.52	948.66	940.71
x1 = 0.3597	960.18	956.18	952.21	944.22	936.21
x1 = 0.4529	955.83	951.8	947.82	939.82	931.76
x1 = 0.5426	952.4	948.39	944.4	936.42	928.33
x1 = 0.6772	948.33	944.25	940.24	932.25	924.21
x1 = 0.827	945.13	941.05	937.03	929.05	921.02
x1 = 1	942.09	938.05	934.06	926.08	918.17

CCCCOCCO [2-butoxyethan-1-ol] + O
Conditions	mass density, 283.15 K [kg/m3]	mass density, 293.15 K [kg/m3]	mass density, 303.15 K [kg/m3]	mass density, 313.15 K [kg/m3]	mass density, 323.15 K [kg/m3]	viscosity, 283.15 K [mPa·s]	viscosity, 293.15 K [mPa·s]	viscosity, 303.15 K [mPa·s]	viscosity, 313.15 K [mPa·s]	viscosity, 323.15 K [mPa·s]
x1 = 0.0005	999.62	998.13	995.57	992.12	–	–	–	–	–	–
x1 = 0.001	999.53	998.01	995.46	992.02	–	–	–	–	–	–
x1 = 0.00201	999.43	997.89	995.29	991.8	–	–	–	–	–	–
x1 = 0.003	999.37	997.78	995.12	991.58	–	–	–	–	–	–
x1 = 0.00399	999.24	997.6	994.89	991.31	–	–	–	–	–	–
x1 = 0.005	999.06	997.34	994.59	990.98	–	–	–	–	–	–
x1 = 0.00601	998.89	997.11	994.27	990.64	–	–	–	–	–	–
x1 = 0.00699	998.86	996.97	994.06	990.36	–	–	–	–	–	–
x1 = 0.00801	998.8	996.83	993.86	990.11	–	–	–	–	–	–
x1 = 0.00896	998.72	996.7	993.69	989.86	–	–	–	–	–	–
x1 = 0.00998	998.68	996.57	993.5	989.6	–	–	–	–	–	–
x1 = 0.01102	998.64	996.43	993.3	989.31	–	–	–	–	–	–
x1 = 0.01209	998.59	996.3	993.09	988.99	–	–	–	–	–	–
x1 = 0.01317	998.55	996.16	992.85	988.65	–	–	–	–	–	–
x1 = 0.01401	998.49	996.02	992.63	988.37	–	–	–	–	–	–
x1 = 0.01499	998.49	995.91	992.38	988.01	–	–	–	–	–	–
x1 = 0.01959	998.45	994.9	990.79	985.95	–	–	–	–	–	–
x1 = 0.02529	997	992.94	988.38	983.21	–	–	–	–	–	–
x1 = 0.0307	995.31	990.88	986.03	980.66	–	–	–	–	–	–
x1 = 0.03495	993.94	989.28	984.22	978.71	–	–	–	–	–	–
x1 = 0.04047	992.16	987.22	981.99	976.24	–	–	–	–	–	–
x1 = 0.04524	990.59	985.5	980.12	974.25	–	–	–	–	–	–
x1 = 0.04961	989.23	983.99	978.47	972.5	–	–	–	–	–	–
x1 = 0.05991	986.08	980.54	974.75	968.52	–	–	–	–	–	–
x1 = 0.06979	983.28	977.49	971.48	965.02	–	–	–	–	–	–
x1 = 0.07979	980.63	974.61	968.38	961.77	–	–	–	–	–	–
x1 = 0.08979	978.05	971.87	965.46	958.67	–	–	–	–	–	–
x1 = 0.1003	975.52	969.12	962.59	955.66	–	5.489	3.791	2.772	2.126	–
x1 = 0.2	957.51	950.15	942.62	934.8	926.83	7.107	4.854	3.483	2.584	1.979
x1 = 0.3	945.28	937.5	929.57	921.47	913.23	7.415	5.079	3.64	2.698	2.054
x1 = 0.4	935.77	927.76	919.6	911.3	902.87	7.234	4.994	3.594	2.672	2.038
x1 = 0.5	928.69	920.54	912.16	903.78	895.22	6.83	4.761	3.448	2.583	1.981
x1 = 0.6	923.16	914.96	906.6	898.14	889.56	6.352	4.476	3.272	2.465	1.901
x1 = 0.7	918.7	910.49	902.02	893.57	884.96	5.857	4.172	3.079	2.337	1.813
x1 = 0.7999	915.01	906.78	898.3	889.84	881.26	5.36	3.865	2.879	2.205	1.721
x1 = 0.9	912.08	903.8	895.3	886.83	878.23	4.885	3.56	2.679	2.068	1.629
x1 = 1	909.49	901.18	892.68	884.21	875.6	4.46	3.288	2.499	1.946	1.543
